Assay results published in patent US11180791B2, “MYO1A for predicting conversion of acute pain into chronic pain and use of MYO1A for therapy of pain” (UNIVERSITE D'AIX-MARSEILLE, priority 2016, dated 2021).
Entries after “also recorded” stand apart in the source; their conditions may differ.

What was measured:
[1] = tested on: WT and Myo1a KO mice; assay: Spared nerve injury (SNI) neuropathic pain model, mechanical thresholds (Von Frey, up-down); format: in vivo; conditions: for reversal of SNI-induced mechanical hypersensitivity: both genotypes (WT and Myo1a KO), i.t 10 nmol SNC80, 0.2 nmol DAMGO, 0.1 μg baclofen, 2 μg TAFA4, 40 μg taurine, i.p 3 mg/kg pregabalin
Protocol: (A-D) Mechanical responses of WT and KO mice following SNI surgery and i.t administration at indicated time-points of 10 nmol of SNC80, 0.2 nmol of DAMGO (A), 0.1 μg of baclofen, 2 μg of TAFA4 (n=6 mice per genotype) (B), 40 μg of taurine, i.p administration of 3 mg/kg of pregabalin (n=8 mice per genotype) (C) and i.t administration of 0.15 μg of muscimol (n=8 mice per genotype) (D).
(§1) SNC80 (Tocris Bioscience) was dissolved in a 100 mM HCl solution, DAMGO (Sigma Aldrich) was dissolved in saline (0.9% NaCl), Baclofen (Sigma Aldrich) was dissolved in H2O (pH7.6), recombinant human TAFA4 (R&D Systems) was dissolved in saline, Diazepam (DZP, Roche) was dissolved in 10% dimethyl sulfoxide (DMSO)/90% saline, Muscimol (Tocris Bioscience), Taurine (Sigma Aldrich), Bicuculline (Sigma Aldrich) and Pregabalin (Sigma Aldrich) were dissolved in Phosphate Buffer (PB, 50 mM, pH 7.4).
(§2) Except for pregabalin, all drugs were administrated via intratechal (i.t) injection. Pregabalin was injected intra-peritoneally (i.p).
(§3) All behavioral analyses were conducted on 8-12 weeks old Myo1a KO and WT males. All experiments were carried at room temperature (˜22° C.). Animals were acclimated for one hour to their testing environment prior to all experiments. Experimenters were blind to the genotype of the mice during testing. All error bars represent SEM. All statistical analysis was carried using Two Way Repeated Measures ANOVA followed by Bonferroni's post-hoc test. Openfield, Rotarod, Hot plate and Formalin tests were carried as described in Gaillard et al., 2014 (Gaillard et al., 2014).
(§4) Mechanical thresholds of the plantar surface were determined using Von Frey's filaments with the up-down method (Chaplan et al., 1994), previously as described (Gaillard et al., 2014) prior to and at several time-points after inflammation, neuropathy and paw-incision surgery.
Spared nerve injury surgery was performed as described (Shields et al., 2003). Briefly, mice were anesthetized with a mix of ketamine/xylazine and an incision was made through the skin and thigh muscle at the level of the trifurcation of the sciatic nerve. The common sural and peroneal nerves were ligated using a 6.0 silk filament (Ethicon, Piscataway, N.J., USA) and transected, while leaving the tibial nerve intact. After surgery, the animals were allowed to recover in a warming chamber, and then they were returned to their home cages. Mechanical thresholds were determined at days 7, 9 and 14 post-surgery, before and after drug administration.

[2] = tested on: WT and Myo1a KO mice; assay: Zymosan-A induced inflammatory pain model, mechanical thresholds (Von Frey, up-down); format: in vivo; conditions: for reversal of zymosan-induced mechanical hypersensitivity: i.t 0.15 μg muscimol, 0.09 mg/kg DZP
Protocol: (E-G) Mechanical responses of WT and KO mice following zymosan-induced inflammation (n=9 mice per genotype) (E) and i.t administration at indicated time-points of 0.15 μg of muscimol, 10 nmol of SNC80 (n=9 mice per genotype) (F) and 0.09 mg/kg of DZP (G) (n=7 mice per genotype). Data are presented as mean±SEM for each group (*p<0.05; **p<0.01; ***p<0.001; ns: non-significant).
as §1, §2, §3, §4
20 μl of a solution containing 1% carrageenan in H2O (weight/vol, Sigma) or 20 μl of a solution containing 0.06 mg Zymosan-A in 0.9% NaCl (weight/vol, Sigma), were injected subcutaneously into the plantar side of the left hindpaw, using a 30 G needled syringe.
For carrageenan-induced inflammation, mechanical thresholds were determined prior to inflammation and at several time-points (see legend) starting from 1 hour and up to 60 days after inflammation. For zymosan inflammation, mechanical thresholds were measured prior to injection, at day 1 and at several time-points (see legend) up day 60. In addition, mechanical thresholds in the zymosan model were measured before inflammation, at day 1 and day 2, before and after drug administration.

[3] = tested on: laminae II neurons; assay: Whole-cell patch-clamp recording of spontaneous EPSC in spinal cord slices; format: cell-based, mice
Protocol: (C-F) Whole cell recordings of spontaneous EPSC in laminae II interneurons after Musc application in naïve (C-D) and in zymosan-inflamed WT and KO mice (E-F).
Left panels: representative traces of EPSC obtained under ACSF (black traces), following superfusion of 5 μM Musc (blue traces) and during wash (brown traces).
Middle panels: Cumulative distribution of EPSC intervals (in seconds) for the experiments shown in the left panels. Note the shift of the Musc/blue curves towards the left (C, D, E middle panels), indicating a reversible increase in EPSC frequency.
Right panels: Normalized EPSC frequency (mean±SEM) under ACSF, following superfusion of 5 μM Musc and during wash. Note the absence of effect of Musc in slices from zymosan inflamed mice. The number of recorded cells is indicated in the right panels (*p<0.05; **p<0.01; ns: non-significant). (See also FIG. 8).
Transverse spinal cord slices with attached dorsal roots from juvenile (P24 to P45) Myo1a KO and WT mice were prepared for whole-cell recording. Briefly, the animals were anesthetized using Pentobarbital (200 mg/kg), perfused with ice cold oxygenated low calcium artificial cerebrospinal fluid (ACSF; in mM: NaCl 101; KCl 3.8; MgCl2 18.7, MgSO4 1.3; KH2PO4 1.2; HEPES 10; CaCl2 1; Glucose 1), and then beheaded. The vertebral column and surrounding muscles were quickly removed and immersed in ice cold oxygenated ACSF. Following laminectomy, the spinal cord was gently removed and its lumbar part was placed into a small 3% agarose block. Spinal slices (300 μm thick) were cut using a Leica VTS1000 vibratome, and transferred in warm (31° C.) ACSF (in mM: NaCl 130.5; KCl 2.4; CaCl2 2.4; NaHCO3 19.5; MgSO4 1.3; KH2PO4 1.2; HEPES 1.25; glucose 10; pH 7.4) equilibrated with 95%02-5% CO2 for at least one hour before starting patch clamp recordings. Spinal slices were placed in a recoding chamber bathed with warmed (31° C.) ACSF Electrophysiological measurements were performed under the control of an Olympus BX51 microscope using a multiclamp 2B (Molecular devices). Patch pipettes ([…]) were filled with C-based pipette solution (in mM: CsMethaneSulfonate 120; CsCl 20; CaCl2 0.1; MgCl2 1.3; EGTA 1; HEPES 10; GTP 0.1; cAMP 0.2; Leupeptin 0.1; Na2ATP 3; D-Manitol 77; pH 7.3). A glass suction electrode connected to a Master 8 (A.M.P. Instrument Ltd) stimulator was used to stimulate dorsal roots. Typically, a pair of high duration (500 μs) high intensity stimulations (350 μA) was used to recruit most primary afferent fibers in the recorded slice. All drugs were purchased from Sigma. Statistical comparison of EPSC frequencies was assessed for each cell using Kolmogorov-Smirnov test.

| Compound | reversal of SNI-induced mechanical hypersensitivity [1] | reversal of injury-induced mechanical hypersensitivity (conclusions summary) ([1]; Myo1a KO mice) | also measured |
| --- | --- | --- | --- |
| C[C@@H](NC(=O)[C@@H](N)Cc1ccc(O)cc1)C(=O)NCC(=O)N(C)[C@@H](Cc1ccccc1)C(=O)NCCO [DAMGO] | significantly reversed |  |  |
| C=CCN1C[C@H](C)N([C@H](c2ccc(C(=O)N(CC)CC)cc2)c2cccc(OC)c2)C[C@H]1C [SNC80] | significantly reversed |  | reversal of zymosan-induced mechanical pain ([2]; both genotypes, i.t 10 nmol SNC80): strongly reversed |
| NCC(CC(=O)O)c1ccc(Cl)cc1 (stereo not shown) [baclofen] | significantly reversed | transiently reversed |  |
| CN1C(=O)CN=C(c2ccccc2)c2cc(Cl)ccc21 [diazepam] |  |  | reversal of zymosan-induced mechanical hypersensitivity ([2]; Myo1a KO mice, 0.09 mg/kg): had no effect and not; reversal of zymosan-induced mechanical hypersensitivity ([2]; Myo1a KO mice, listed as DZP, 0.09 mg/kg): totally insensitive; reversal of zymosan-induced mechanical hypersensitivity ([2]; WT mice): strongly reversed |
| NCc1cc(=O)[nH]o1 [muscimol] |  | not | reversal of SNI-induced mechanical pain ([1]; Myo1a KO mice, i.t 0.15 μg muscimol): completely failed to reverse; also recorded: totally insensitive; sEPSC frequency ([3]; naïve WT mice, bath application of 5 μM muscimol): significant increase; increase in sEPSC frequency ([3]; naïve slices from Myo1a KO mice, 5 μM muscimol): 544%; sEPSC frequency, effect relative to naïve WT ([3]; slices from WT mice inflamed with zymosan, 5 μM muscimol): almost doubled; sEPSC frequency ([3]; slices from zymosan inflamed Myo1a KO mice, 5 μM muscimol): had no effect; reversal of zymosan-induced mechanical hypersensitivity ([2]; Myo1a KO mice): had no effect; reversal of zymosan-induced mechanical hypersensitivity ([2]; WT mice): strongly reversed |
| CC(C)C[C@H](CN)CC(=O)O [pregabalin] | significantly reversed | transiently reversed |  |
| NCCS(=O)(=O)O [taurine] | significantly reversed | transiently reversed |  |
| TAFA4: recombinant human TAFA4 (R&D Systems), a chemokine-like protein | significantly reversed | transiently reversed |  |
